Marks after values point to notes of the source that are not given here.
Experiments:
[1] = system: 4T1 murine breast cancer cells; experiment: Example S: in vitro anticancer screen, 4T1 cells, Wst1; type: cell-based, mouse; conditions: Mus musculus, 4T1, 18 h, 18 hr, Wst1; for viability at 1 µM: read-out: 4T1 1 μM, percent of cancer cell survival relative to vehicle treated cells; for viability at 5 µM: read-out: 4T1 5 μM, percent of cancer cell survival relative to vehicle treated cells
Procedure, shortened: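 Read-out is Wst1 absorbance (450 nm, reference 630 nm) after roughly 2 hr dye incubation, giving percent cell survival versus vehicle. Before that, compounds at 1 μM or 5 μM were applied for 18 hr to 4T1 cells plated at 1×10^4 per well.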

[2] = system: PC3 human prostate cancer cells; experiment: Example S: in vitro anticancer screen, PC-3 cells, Wst1; type: cell-based; conditions: Homo sapiens, PC-3, approximately 20 hours, Wst1, read-out: PC-3, percent of cancer cell survival relative to vehicle treated cells
Procedure, shortened: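 Values give percent survival relative to vehicle, read by Wst1 absorbance (450/630 nm) after 2 h dye incubation, in triplicate. Cells were seeded at 2×10^4/well and treated about 20 h with compound at 0.4, 0.5 or 2.5 μM, depending on compound.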

[3] = system: HCT-116 colon adenocarcinoma cells; experiment: Example Q: HCT-116 liver metastases of human colorectal cancer in nude mice; type: in vivo; conditions: 240 μmol/kg/day oral, 28 days
From the text: A major cause of morbidity and mortality in patients with colorectal cancer is metastasis of the tumor into the liver; colorectal cancer can often be successfully resected from the primary site, but metastases to the liver are much less accessible to surgical treatment. A mouse model of colorectal cancer metastasis to the liver has been established, using HCT-116 colon adenocarcinoma cells injected into the spleen of athymic (nude) mice. The HCT-116 cancer cells spontaneously spread from the spleen into the liver via the circulation, and they form tumors in the liver (Ishizu, K., Sunose, N., Yamazaki, K., Tsuruo, T., Sadahiro, S., Makuuchi, H., and Yamori, T. Development and Characterization of a Model of Liver Metastasis Using Human Colon Cancer HCT-116. Biol. Pharm. Bull. 2007, 30(9):1779-1783).
Mice (female Hsd:athymic nude-Foxn1^nu) were anesthetized with xylazine/ketamine intraperitoneal injection, followed by incision approximately 10 mm on the left subcostal region (area disinfected with ethanol) to expose the peritoneum. The peritoneum was opened for about 8 mm near the spleen, and 2.5×10^6 cells in 50 μL PBS were injected into the spleen using a 30G needle. The spleen was repositioned, and the surgical area was closed using sutures and clips.
The day after receiving cells, mice were randomized into groups of five based upon body weight to provide groups with approximately equivalent mean body weight. Mice received a single, daily oral dose of test article or vehicle (1% hydroxypropylmethylcellulose) beginning 48 hours following cell injection into the spleen.
At study termination 28 days after HCT-116 cell injection, body weights were recorded, and spleens and livers were removed, weighed and fixed in 10% formalin. Livers were sectioned and stained; the relative areas of normal and tumor tissue were quantified in histology sections with quantitative planimetry software.

[4] = system: 4T1 mouse mammary breast cancer cells; experiment: Example O: syngeneic 4T1 breast cancer growth in Balb/C mice; type: in vivo; conditions: for Final Tumor Volume / Δ BW % / Final Body Weight / Initial Body Weight: 4T1 in female Balb/C mice; for Final Tumor Volume: 120 μmol/kg/day oral gavage, day 2 to day 30; for Δ BW % / Final Body Weight / Initial Body Weight: 120 μmol/kg/day oral; for Δ BW %: final vs initial body weight; for Final Body Weight: in g (unit assumed); for Initial Body Weight: initial (baseline)
Experimental: Cancer models in mice generally either involve syngeneic murine tumors in immunocompetent mice or xenografts of human tumors in immunocompromised mice. […] Mice received test compounds by oral gavage in 1% hydroxypropylmethylcellulose from day 2 until day 30. Tumor growth was assessed by caliper measurements twice per week and tumor weight after necropsy, and body weight was also monitored. Treatment groups were: • 1. […] HPMC) • 2. CI (120 μmol/kg/day) • 3. BA (120 μmol/kg/day) • 4. CP (120 μmol/kg/day) • 5. CQ (120 μmol/kg/day) • 6. AA (120 μmol/kg/day) • 7. AC (120 μmol/kg/day)

[5] = system: PC-3 prostate cancer cells; experiment: Example T: sensitisation of PC-3 cells to doxorubicin, oxaliplatin, paclitaxel or vincristine, Wst1; type: cell-based, human; conditions: PC-3 cells, 72 hours; for viability at 2.5 µM: compound 2.5 μM alone; for Doxorubicin 3.5 μM: percent cell survival / Oxaliplatin 100 μM: percent cell survival / Paclitaxel 50 μM: percent cell survival / Vincristine 100 nM: percent cell survival: chemotherapy agent alone normalized to 100%
[6] = system: EAE induced by PLP139-151; experiment: Example G: Experimental Autoimmune Encephalitis (EAE) mouse model of multiple sclerosis; type: in vivo; conditions: for EAE Score on Day 46: 60 μmol/kg by oral gavage from Day 14, score 0-5; for EAE Score on Day 14 (Before Treatment): baseline, score 0-5
THP-1 cells = experiment: Example D: LPS-triggered THP-1 cell death assay, acute/5-hour and chronic/48-hour; type: cell-based, Human; conditions: 10 ng/ml LPS, 0.1 μM test compound, 48 hours
Experimental: Compounds of the invention were tested at 0.1 μM versus AC in the LPS-triggered THP-1 cell death assay. Both acute/5-hour and chronic/48-hour phases of cell death were assessed. Compounds were screened in batches with DMSO as the negative control and AC as the high activity control.

[7] = system: Cryptococcus neoformans (serotype D); experiment: Example K: Cryptococcus neoformans (serotype D) growth inhibition; type: cell-based
[8] = system: Vit-D3 activated THP-1 cells; experiment: Example B: Acridine Orange (A.O.) uptake, lysosomal acidification and integrity; type: cell-based, Human; conditions: 5 hours
Experimental: In this experiment, cell viability was monitored and uptake and accumulation of acridine orange, a lysosomotropic fluorescent dye, was used to assess lysosomal acidification and integrity. JC-1 dye was used to measure effects of test compounds on mitochondrial membrane potential (MMP); reduction of MMP is a feature of apoptotic cell death. • 1. […] The tubes were washed twice in DPBS, resuspended in 500 μl DPBS and acquired on the FACSCalibur.

S. cerevisiae = experiment: Example I: Saccharomyces cerevisiae growth inhibition (OD 600 nm); type: cell-based; conditions: tested 4 to 50 μM
[9] = HCT-116 liver metastases, nude mice
[10] = Homo sapiens, Wst1, vehicle = 100, read-out: No Chemo: percent cell survival
[11] = compound 2.5 μM + doxorubicin 3.5 μM
[12] = compound 2.5 μM + oxaliplatin 100 μM
[13] = compound 2.5 μM + paclitaxel 50 μM
[14] = compound 2.5 μM + vincristine 100 nM

SMILES	viability at 1 µM [1] [%]	viability at 5 µM [1] [%]	viability at 2.5 µM [2] [%]	Final Tumor Volume [4] [mm^3]	Δ BW % [4] [%]	Final Body Weight [4]	Initial Body Weight [4] [g]	viability at 2.5 µM [5, 10] [%]	Doxorubicin 3.5 μM: percent cell survival [5, 11] [%]	Oxaliplatin 100 μM: percent cell survival [5, 12] [%]	Paclitaxel 50 μM: percent cell survival [5, 13] [%]	Vincristine 100 nM: percent cell survival [5, 14] [%]	EAE Score on Day 46 [6]	EAE Score on Day 14 (Before Treatment) [6]	Viable cell percent change, Chronic/48-hour, Mean (THP-1 cells) [%]	other results
CCCCCCOc1ccccc1OCCCNc1ccnc2ccccc12 [CQ, N-{3-[2-(Hexyloxy)phenoxy]propyl}quinolin-4-amine]	71.9	57.9	95.8	140 ± 60	−2.0	24.4 ± 0.9	24.9 ± 0.6	95.8	86.5	93.8	34.8	47.1	–	–	–	excess of the Vehicle group's liver weight/body weight ratio over the treated group [3]: 12%; area of liver invaded by metastatic cancer cells, in words ([3]; histology planimetry): markedly reduced the area of liver invaded by metastatic cancer cells; Final Body Weight Grams [3, 9]: 26.2 ± 0.9 NS Grams; Liver Weight % of Body Weight [3, 9]: 5.3 ± 0.1%; Tumor Area % of Vehicle Group [3, 9]: 0.15% *; Tumor Area % of Total Liver ([3]; HCT-116 liver metastases, nude mice, histology planimetry): 0.02 ± 0.01%; tumor growth versus vehicle-treated mice, in words ([4]; daily oral administration, 120 μM/kg/day as printed): most active of the compounds tested in this experiment
CCCCCCOc1ccc(OCCCCNc2ccnc3ccccc23)cc1 [CZ, N-{4-[4-(Hexyloxy)phenoxy]butyl}quinolin-4-amine]	50.6	28.3	–	–	–	–	–	–	–	–	–	–	2.29 ± 0.20	1.00 ± 0.00	53.70	viability at 0.4 µM ([2]; 0.4 μM): 96.7%; viability at 0.4 µM ([5]; Homo sapiens, compound 0.4 μM alone, Wst1, vehicle = 100, read-out: No Chemo: percent cell survival): 96.7%; Doxorubicin 3.5 μM: percent cell survival ([5]; compound 0.4 μM + doxorubicin 3.5 μM): 89.1%; Oxaliplatin 100 μM: percent cell survival ([5]; compound 0.4 μM + oxaliplatin 100 μM): 91.1%; Paclitaxel 50 μM: percent cell survival ([5]; compound 0.4 μM + paclitaxel 50 μM): 101.9%; Vincristine 100 nM: percent cell survival ([5]; compound 0.4 μM + vincristine 100 nM): 90.3%
CN(C(=O)c1c(O)c2ccccc2n(C)c1=O)c1ccccc1 [Linomide, reference compound]	–	–	–	–	–	–	–	–	–	–	–	–	2.29 ± 0.48	0.93 ± 0.19	–	–
CCCCCCOc1ccccc1OCCNc1ccnc2ccccc12 [CP, N-{2-[2-(Hexyloxy)phenoxy]ethyl}quinolin-4-amine]	82.6	38	35.6	352 ± 114	−0.0	24.1 ± 1.3	24.1 ± 0.9	35.6	72.4	76.5	74.5	48.2	1.86 ± 0.34	0.86 ± 0.14	49.81	–
CCN(CC)CCCC(C)Nc1ccnc2cc(Cl)ccc12 (stereo not drawn) [Chloroquine, Chloroquine diphosphate, reference compound]	–	–	–	–	–	–	–	–	–	–	–	–	–	–	–	IC50 ([7]; Cryptococcus deneoformans): > 100 µM; growth inhibition of Cryptococcus neoformans (maximum) ([7]; chloroquine at a concentration of 100 micromolar): less than 50%; inhibition at 100 µM ([7]; read-out: growth inhibition of Cryptococcus neoformans (maximum), chloroquine at a concentration of 100 micromolar): 40%; A.O. FL-3 fluorescence (MFI) percent change from DMSO no LPS, Mean ± SE ([8]; 50.0 μM C.Q., 1 ng/ml LPS): −72.28 ± 0.78%; A.O. FL-3 fluorescence (MFI) percent change from DMSO no LPS, Mean ± SE ([8]; 100.0 μM C.Q., 1 ng/ml LPS): −88.28 ± 1.60%; A.O. FL-3 fluorescence (MFI) percent change from DMSO no LPS, Mean ± SE ([8]; 100.0 μM C.Q., No LPS): −91.25 ± 0.60%; inactive compound (inhibition of yeast growth, in words) (S. cerevisiae): did not show any inhibition of yeast growth up to 50 uM

From patent US20250034139A1, “AMINE COMPOUNDS HAVING ANTI-INFLAMMATORY, ANTIFUNGAL, ANTIPARASITIC, AND ANTICANCER ACTIVITY” (PHARMA CINQ, LLC, priority 2013, published 2025)
